Data published in the supplement of paper PMC10307832.

Key:
Experiment in all cases: relative viability (nuclei count vs DMSO), 5 days (fraction); higher = more cells survive
[1] = compound: CC[C@H](CO)Nc1nc(NCc2ccccc2)c2ncn(C(C)C)c2n1 [Seliciclib] + COc1cc2c(Oc3ccc(NC(=O)C4(C(=O)Nc5ccc(F)cc5)CC4)cc3F)ccnc2cc1OCCCN1CCOCC1 [Foretinib] (partner 0.25 µM)
How it was run: (§1)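 Medians of duplicate plates are given as relative viability. That measure is the nuclei count in treated wells divided by the count in vehicle wells. Counts were taken on 4× images of lung cancer cell lines in 1536-well plates, 5 days after pin-tool dosing the day after seeding with one drug alone or a fixed anchor-drug dose plus five library-drug doses (not always all listed) in √10 steps.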

[2] = compound: CC[C@H](CO)Nc1nc(NCc2ccccc2)c2ncn(C(C)C)c2n1 [Seliciclib] + NC(=O)Nc1cc(-c2cccc(F)c2)sc1C(=O)N[C@H]1CCCNC1 [AZD7762] (partner 0.2 µM)
How it was run: as §1

[3] = compound: CC[C@H](CO)Nc1nc(NCc2ccccc2)c2ncn(C(C)C)c2n1 [Seliciclib] + O=C(CCCCCCC(=O)Nc1ccccc1)NO [Vorinostat] (partner 1 µM)
How it was run: as §1

[4] = compound: CC[C@H](CO)Nc1nc(NCc2ccccc2)c2ncn(C(C)C)c2n1 [Seliciclib] + CS(=O)(=O)N1CCN(Cc2cc3nc(-c4cccc5[nH]ncc45)nc(N4CCOCC4)c3s2)CC1 [Pictilisib] (partner 1 µM)
How it was run: as §1

| Cell Line | relative viability ([1]; first compound 0.08 µM) | relative viability ([1]; first compound 0.253 µM) | relative viability ([1]; first compound 0.8 µM) | relative viability ([1]; first compound 8 µM) | relative viability ([2]; first compound 0.08 µM) | relative viability ([2]; first compound 0.253 µM) | relative viability ([2]; first compound 0.8 µM) | relative viability ([2]; first compound 2.53 µM) | relative viability ([2]; first compound 8 µM) | relative viability ([3]; first compound 0.08 µM) | relative viability ([3]; first compound 0.253 µM) | relative viability ([3]; first compound 0.8 µM) | relative viability ([3]; first compound 2.53 µM) | relative viability ([3]; first compound 8 µM) | relative viability ([4]; first compound 0.08 µM) | relative viability ([4]; first compound 0.253 µM) | relative viability ([4]; first compound 0.8 µM) | relative viability ([4]; first compound 2.53 µM) | relative viability ([4]; first compound 8 µM) | relative viability ([1]; first compound 2.53 µM) |
| --- | --- | --- | --- | --- | --- | --- | --- | --- | --- | --- | --- | --- | --- | --- | --- | --- | --- | --- | --- | --- |
| 201T | 0.915 | 1.13 | 1.07 | 1.04 | 0.578 | 0.534 | 0.69 | 0.622 | 0.734 | 0.967 | 1.07 | 0.904 | 0.637 | 0.906 | 0.712 | 0.693 | 0.676 | 0.656 | 0.626 | – |
| NCI-H838 | 0.902 | 0.928 | 0.998 | 0.808 | 0.922 | 0.966 | 0.877 | 0.939 | 0.861 | 0.649 | 0.683 | 0.666 | 0.595 | 0.342 | 0.469 | 0.468 | 0.432 | 0.408 | 0.294 | 1.11 |
| PC-14 | 0.884 | 0.971 | 0.902 | 0.843 | 0.358 | 0.35 | 0.358 | 0.354 | 0.331 | 0.663 | 0.747 | 0.744 | 0.644 | 0.625 | 0.622 | 0.67 | 0.69 | 0.808 | 0.513 | 0.997 |
| LK-2 | 1.13 | 1.08 | 0.776 | 0.977 | 0.414 | 0.379 | 0.584 | 0.187 | 0.293 | 0.33 | 0.253 | 0.335 | 0.242 | 0.204 | 0.591 | 0.562 | 0.614 | 0.541 | 0.447 | 0.85 |
| HCC-78 | 0.535 | 0.574 | 0.445 | 0.457 | 0.689 | 0.66 | 0.62 | 0.525 | 0.51 | 0.393 | 0.518 | 0.389 | 0.396 | 0.32 | 0.203 | 0.274 | 0.187 | 0.174 | 0.181 | 0.41 |
| NCI-H2405 | 1.06 | 1.16 | 1.07 | 0.939 | 0.8 | 0.757 | 0.831 | 0.584 | 0.648 | 1.06 | 1.2 | 0.98 | 0.742 | 0.739 | 0.462 | 0.43 | 0.314 | 0.288 | 0.35 | 0.836 |
| EMC-BAC-2 | 1.02 | 0.94 | 0.955 | 0.909 | 1.2 | 1.21 | 1.25 | 0.794 | 0.946 | 0.454 | 0.414 | 0.547 | 0.259 | 0.307 | 0.505 | 0.526 | 0.497 | 0.392 | 0.51 | 1.02 |
| NCI-H596 | 0.849 | – | 0.843 | 0.65 | 1.12 | – | 1.17 | 1.19 | 0.993 | 0.635 | – | 0.56 | 0.506 | 0.47 | 0.376 | 0.36 | 0.403 | 0.421 | 0.415 | 0.68 |
| LCLC-97TM1 | 0.936 | 0.952 | 0.961 | 0.72 | 0.232 | 0.258 | 0.432 | – | 0.392 | 0.803 | 0.706 | 0.82 | 0.106 | 0.222 | 0.281 | 0.168 | 0.17 | – | 0.142 | 0.793 |
| H3255 | 0.808 | 1.01 | 0.51 | 0.895 | 0.811 | 0.848 | 0.951 | 0.839 | 0.823 | 0.854 | 0.825 | 0.855 | 0.691 | 0.755 | 0.47 | 0.567 | 0.487 | 0.483 | 0.502 | 0.806 |
| LXF-289 | 0.95 | 1.16 | 0.973 | 0.86 | 1.09 | 1.33 | 1.06 | 1.16 | 0.993 | 0.735 | 0.824 | 0.671 | 0.582 | 0.457 | 0.779 | 0.86 | 0.701 | 0.595 | 0.724 | 0.943 |
| LC-2-ad | 0.949 | 0.966 | 0.865 | 0.852 | 0.839 | 0.882 | 0.791 | 0.741 | 0.853 | 0.7 | 0.68 | 0.671 | 0.445 | 0.528 | 0.487 | 0.572 | 0.34 | 0.205 | 0.0269 | 0.747 |
| NCI-H2170 | 0.936 | 0.934 | 1.01 | 0.968 | 0.841 | – | 0.877 | 0.979 | 0.921 | 0.742 | – | 0.774 | 0.687 | 0.663 | 0.306 | 0.255 | 0.286 | 0.243 | 0.336 | 1.09 |
| A-427 | 1.06 | 1.11 | 0.944 | 1.17 | 0.763 | 0.912 | 0.853 | 1.13 | 0.998 | 0.856 | 0.815 | 0.877 | 0.823 | 0.824 | 0.753 | 0.737 | 0.646 | 0.688 | 0.695 | 1.28 |
| NCI-H322M | 1 | 1.23 | 0.907 | 0.752 | 0.594 | 0.646 | 0.637 | 0.692 | 0.907 | 0.894 | 1.03 | 0.87 | 0.773 | 0.521 | 0.523 | 0.583 | 0.494 | 0.449 | 0.379 | 0.865 |
| HCC-366 | 0.917 | 0.97 | 0.786 | 0.762 | 0.291 | 0.274 | 0.388 | 0.409 | 0.481 | 0.317 | 0.467 | 0.377 | 0.212 | 0.164 | 0.12 | 0.137 | 0.106 | 0.109 | 0.163 | 0.93 |
| NCI-H1975 | 1 | 0.977 | 0.894 | 0.748 | 0.684 | 0.628 | 0.741 | 0.613 | 0.758 | 0.689 | 0.608 | 0.66 | 0.652 | 0.46 | 0.296 | 0.298 | 0.352 | 0.214 | 0.271 | 0.932 |
